According to the Deep4Chem optical property database:

Test: solvent given as SMILES

O=C1[C@@H]2[C@H](C(=O)N1c1cccc3cc4ccccc4cc13)[C@@H]1C=C[C@H]2C1
absorption maximum (in ClC(Cl)Cl): 384 nm

CC1(C)CC(=O)c2cc(F)c(F)cc2N1
absorption maximum (in CC#N): 369 nm | absorption maximum (in CCO): 381 nm

CCCCCCOc1cc(/C=C/c2cc(OCCCCCC)c(/C=C/c3cc(OCCCCCC)c(C=C4C(=C(C#N)C#N)c5ccccc5C4=C(C#N)C#N)cc3OCCCCCC)cc2OCCCCCC)c(OCCCCCC)cc1C=C1C(=C(C#N)C#N)c2ccccc2C1=C(C#N)C#N
absorption maximum (in ClCCl): 640 nm

CC(C)(C)c1ccccc1N(c1ccccc1)c1ccc(S(=O)(=O)c2ccc(S(=O)(=O)c3ccc(N(c4ccccc4)c4ccccc4C(C)(C)C)cc3)cc2)cc1
absorption maximum (in Cc1ccccc1): 348 nm

CN(C)c1ccc(-c2ccc(-c3cc(N4CCCCC4)c(C#N)c4c3-c3ccccc3CC4)s2)cc1
absorption maximum (in C1CCCCC1): 368 nm | absorption maximum (in C1CCOC1): 350 nm | absorption maximum (in CN(C)C=O): 384 nm | absorption maximum (in CS(C)=O): 379 nm | absorption maximum (in Cc1ccccc1): 377 nm | absorption maximum (in ClC(Cl)Cl): 377 nm

CCCCCCCCN1C(=O)c2ccc3c4c(-c5ccc(N(c6ccccc6)c6ccccc6)cc5)cc5c6c(ccc(c7c(-c8ccc(N(c9ccccc9)c9ccccc9)cc8)cc(c2c37)C1=O)c64)C(=O)N(CCCCCCCC)C5=O
absorption maximum (in ClC(Cl)Cl): 645 nm

CCCCn1c2ccc(-c3ccc(C(F)(F)F)cc3)cc2c2ccc3c4cc(-c5ccc(C(F)(F)F)cc5)ccc4n(CCCC)c3c21
absorption maximum (in ClC(Cl)Cl): 301 nm

COc1ccc(N(c2ccccc2)c2ccc(OC)cc2)cc1
absorption maximum (in Cc1ccccc1): 300 nm

O=c1c2cccc3cccc(c32)c2nc3cccc4cccc(c43)n12
absorption maximum (in ClCCl): 475 nm

CC(C)(C)c1ccc(C2=C(c3ccc(N(c4ccccc4)c4ccccc4)cc3)S(=O)(=O)c3c2sc(-c2ccc(N(c4ccccc4)c4ccccc4)cc2)c3-c2ccc(C(C)(C)C)cc2)cc1
absorption maximum (in C1CCOC1): 463 nm

CCC1=C(CC)c2cccc3c2c(cc2nc4ccccc4nc23)O1
absorption maximum (in ClCCl): 501 nm

CC(C)c1cc(C(C)C)c(B2c3cc(N4c5ccccc5Oc5ccccc54)ccc3N(c3ccccc3)c3ccc(N4c5ccccc5Oc5ccccc54)cc32)c(C(C)C)c1
absorption maximum (in C1CCCCC1): 372.79 nm

Cc1cc(C)c(B(c2cc(-c3ccc(C(F)(F)F)cc3)sc2-c2sc(-c3ccc(C(F)(F)F)cc3)cc2P(=O)(c2ccccc2)c2ccccc2)c2c(C)cc(C)cc2C)c(C)c1
absorption maximum (in CO): 389 nm

Cc1cc2c3ccccc3oc2c2[nH]c3ccccc3c12
absorption maximum (in ClCCl): 314 nm

CCOC(=O)c1ccc(C2CC(c3cccc4ccccc34)=NN2c2ccc(Cl)cc2)cc1 (stereo unspecified)
absorption maximum (in ClCCl): 378 nm

c1ccc2c3c(ccc2c1)C1(c2cc(-c4ccc5ccc6cccc7ccc4c5c67)ccc2-c2ccc(-c4ccc5ccc6cccc7ccc4c5c67)cc21)c1ccc2ccccc2c1O3
absorption maximum (in ClC(Cl)Cl): 365 nm

Cc1ccccc1C1CC(=O)Oc2c1c1nc3ccccc3nc1c1ccccc21 (stereo unspecified)
absorption maximum (in ClC(Cl)Cl): 410 nm

COC(=O)c1[nH]c(-c2ccccc2)c2nnc3ccc(OC)cc3c12
absorption maximum (in ClCCl): 392 nm

O=C1c2ccccc2-c2c(-c3ccc([N+](=O)[O-])cc3)c(-c3ccc([N+](=O)[O-])cc3)c(-c3ccccc3)c3cccc1c23
absorption maximum (in CC#N): 396 nm | absorption maximum (in CO): 400 nm

CCCCCc1c(Oc2cc(O)cc(CCC(=O)CC)c2C(=O)OC)c(OC)cc(O)c1C(=O)O
absorption maximum (in ClC(Cl)Cl): 312 nm

CCC(C)(C)c1ccc2c(c1)C(CC)(CC)c1cc(-c3ccc(-c4ccc5c(c4)C(CC)(CC)c4cc(C(C)(C)CC)ccc4-5)cc3)ccc1-2
absorption maximum (in C1CCCCC1): 332 nm

Cc1ccc(C2=[N+]3C(=Cc4c(C)cc(C)n4[B-]3(F)F)c3ccccc32)[nH]1
absorption maximum (in C1CCOC1): 607 nm | absorption maximum (in CC#N): 600 nm | absorption maximum (in CCCCCC): 607 nm | absorption maximum (in CO): 602 nm | absorption maximum (in Cc1ccccc1): 612 nm | absorption maximum (in ClCCl): 608 nm

CCC1=C(C)C2=Cc3c4ccccc4c4n3[B-](C)(Oc3ccccc3-4)[N+]2=C1C (stereo unspecified)
absorption maximum (in CC#N): 616 nm | absorption maximum (in CCCCCC): 621 nm | absorption maximum (in Cc1ccccc1): 625 nm | absorption maximum (in ClCCl): 622 nm

C(S/C=C/c1ccc(-c2ccc(/C=C/SC=C3CCCCCC3)cc2)cc1)=C1CCCCCC1
absorption maximum (in ClCCl): 353 nm

CCCCCCn1c(=O)c2c3oc4ccccc4sc3c3c(=O)n(CCCCCC)c(=O)c3c2c1=O
absorption maximum (in ClCCl): 437 nm

CC(=O)c1c2c(c(C(C)=O)c3c1OC(CC(=O)O)O3)OCO2
absorption maximum (in CC#N): 433 nm

CN1CCc2cc(C3=Cc4cccc[n+]4[B-](F)(F)O3)ccc21
absorption maximum (in ClC(Cl)Cl): 430 nm

O=Cc1ccc(C2=Cc3ccccc3P2(=O)c2ccccc2)cc1 (stereo unspecified)
absorption maximum (in ClCCl): 357 nm

COc1ccc2n1[B-](F)(F)[N+]1=C(SC#N)C=CC1=C2c1ccccc1
absorption maximum (in CC#N): 474 nm | absorption maximum (in CCCCCC): 517 nm | absorption maximum (in CCOC(C)=O): 506 nm | absorption maximum (in CO): 480 nm | absorption maximum (in ClCCl): 508 nm

CCCCCCCCC1(CCCCCCCC)c2cc(-c3ccc(C(F)(F)F)cc3)ccc2-c2ccc(N(c3ccc(-n4c5ccccc5c5ccccc54)cc3)c3ccc4c(c3)C(CCCCCCCC)(CCCCCCCC)c3cc(-c5ccc(C(F)(F)F)cc5)ccc3-4)cc21
absorption maximum (in C1CCOC1): 375 nm | absorption maximum (in C1COCCO1): 374 nm | absorption maximum (in CC#N): 370 nm | absorption maximum (in CC(C)=O): 371 nm | absorption maximum (in CCCCCC): 380 nm | absorption maximum (in CCCCOCCCC): 379 nm | absorption maximum (in CCN(CC)CC): 376 nm | absorption maximum (in CCOC(C)=O): 372 nm | absorption maximum (in CCOCC): 374 nm | absorption maximum (in CN(C)C=O): 373 nm | absorption maximum (in CS(C)=O): 371 nm | absorption maximum (in Cc1ccccc1): 379 nm | absorption maximum (in ClC(Cl)Cl): 382 nm | absorption maximum (in ClCCl): 378 nm | absorption maximum (in c1ccccc1): 378 nm

C(#Cc1nc2ccccc2s1)c1ccc(N(c2ccc(C#Cc3nc4ccccc4s3)cc2)c2ccc(C#Cc3nc4ccccc4s3)cc2)cc1
absorption maximum (in Cc1ccccc1): 404 nm

O=P1(c2ccccc2)C(c2ccccc2)=Cc2ccccc21 (stereo unspecified)
absorption maximum (in C1CCOC1): 347 nm | absorption maximum (in ClCCl): 350 nm

CC[B-]1(CC)c2cccc3c4c5c(cccc5c(c23)-c2cccc(C)[n+]21)[B-](CC)(CC)[n+]1c(C)cccc1-4
absorption maximum (in ClCCl): 538 nm

Clc1nc(Cl)nc(Nc2ccc3ccc4cccc5ccc2c3c45)n1
absorption maximum (in CC#N): 341 nm | absorption maximum (in CCCCOCCCC): 341 nm | absorption maximum (in CO): 340 nm

Clc1ccc(/C=C/c2cnc3ccccc3n2)cc1
absorption maximum (in ClCCl): 355 nm

O=C([O-])c1ccccc1-c1c2cc(I)c(=O)c(I)c-2oc2c(I)c([O-])c(I)cc12
absorption maximum (in CC(C)O): 532 nm | absorption maximum (in CCO): 532 nm | absorption maximum (in CO): 526 nm | absorption maximum (in O): 521 nm

COc1ccc(C2=C(c3ccc(OC)cc3)C(c3ccccc3)=[N+]3C2=Nc2c(-c4ccc(OC)cc4)c(-c4ccc(OC)cc4)c(-c4ccccc4)n2[B-]3(F)F)cc1
absorption maximum (in Cc1ccccc1): 654 nm

FC(F)(F)C(F)(F)C(F)(F)C(F)(F)C(F)(F)C(F)(F)C(F)(F)C(F)(F)CCOc1nnc(Cl)nn1
absorption maximum (in ClCCl): 519 nm | absorption maximum (in OCC(F)(F)F): 509 nm

Cc1ccc2nc(-c3cccc4nc(C)[nH]c(=O)c34)[nH]c2c1
absorption maximum (in CN(C)C=O): 322 nm

CCCCOc1ccc2cc(-c3ccc(C)cc3)c(=O)oc2c1
absorption maximum (in C1CCOC1): 343 nm | absorption maximum (in CCCCCC): 338 nm | absorption maximum (in CCO): 344 nm | absorption maximum (in CS(C)=O): 346 nm

COC(=O)C(NC(=O)OC(C)(C)C)c1ccc2oc(-c3ccc(N(C)C)cc3OC)nc2c1 (stereo unspecified)
absorption maximum (in CC1CCCCC1): 336 nm | absorption maximum (in CC#N): 343 nm | absorption maximum (in CO): 346 nm

c1cc2c3c4c5c(cccc5cc3c1)-c1cccn1B4n1cccc1-2
absorption maximum (in C1CCOC1): 505 nm

CCC1=C(C)C2=Cc3c4ccccc4c4n3[B-](c3ccc5ccc6cccc7ccc3c5c67)(Oc3ccccc3-4)[N+]2=C1C (stereo unspecified)
absorption maximum (in CC#N): 622 nm | absorption maximum (in CCCCCC): 627 nm | absorption maximum (in Cc1ccccc1): 630 nm | absorption maximum (in ClCCl): 628 nm

c1ccc(N2c3ccccc3C3(c4ccccc4-c4ccccc43)c3ccccc32)cc1
absorption maximum (in ClCCl): 310 nm

CC1=CC(C)=[N+]2C1=C(c1ccc(I)cc1)c1c(C)cc(C)n1[B-]2(F)F
absorption maximum (in ClC(Cl)Cl): 504 nm

CC(C)=CC(=O)c1cc2c(cc1F)NC(C)(C)CC2=O
absorption maximum (in CC#N): 356 nm

O=S(=O)([O-])c1cccc2c(O)cccc12
absorption maximum (in O): 304 nm

COc1cccc(-c2[nH]c(=O)n3c2-c2ccccc2C3=O)c1O
absorption maximum (in CC#N): 393 nm | absorption maximum (in CO): 395 nm | absorption maximum (in ClCCl): 396 nm

O=S1(=O)C2=C(c3ccc(N(c4ccccc4)c4ccccc4)cc31)C1(C3=C(c4ccccc41)S(=O)(=O)c1cc(N(c4ccccc4)c4ccccc4)ccc13)c1ccccc12
absorption maximum (in C1CCOC1): 443 nm | absorption maximum (in CC#N): 446 nm | absorption maximum (in CCCCCC): 434 nm | absorption maximum (in Cc1ccccc1): 450 nm | absorption maximum (in ClCCl): 451 nm

CCN1C(=O)C(C2C(=O)c3c4ccccc4cc4cc5ccccc5c2c34)C(=O)N(CC)C1=S (stereo unspecified)
absorption maximum (in ClCCl): 532.11 nm

COc1ccc(-c2nc(C(C)=O)c(C)o2)cc1
absorption maximum (in CC#N): 278 nm | absorption maximum (in CCCCCC): 278 nm | absorption maximum (in CCO): 277 nm | absorption maximum (in CCOC(C)=O): 279 nm | absorption maximum (in CCOCC): 276 nm | absorption maximum (in ClCCl): 277 nm

F[B-]1(F)n2c(cc3oc4ccccc4c32)C(c2ccc(I)cc2)=C2C=c3oc4ccccc4c3=[N+]21
absorption maximum (in ClC(Cl)Cl): 637 nm

CC1(C)c2ccccc2N(c2ccc(-c3ccc(C#N)c(C#N)n3)cc2)c2ccccc21
absorption maximum (in Cc1ccccc1): 404 nm

OC1(c2ccc(-c3cccs3)s2)CCC(c2ccccc2)CC1 (stereo unspecified)
absorption maximum (in C1CCOC1): 313 nm | absorption maximum (in CC#N): 309 nm | absorption maximum (in CCCCCC): 307 nm | absorption maximum (in CCO): 309 nm | absorption maximum (in OCCOCCO): 311 nm | absorption maximum (in c1ccncc1): 314 nm

Nc1cc(N)cc(-c2nc3ccccc3s2)c1
absorption maximum (in C1CCCCC1): 360 nm | absorption maximum (in C1COCCO1): 360 nm | absorption maximum (in CC#N): 360 nm | absorption maximum (in CC(C)O): 360 nm | absorption maximum (in CCOC(C)=O): 360 nm | absorption maximum (in CCOCC): 360 nm | absorption maximum (in CO): 360 nm | absorption maximum (in O): 360 nm
